According to US10059760B2 (priority 2014, dated 2018):
Where two headings read alike, the source gives them in different places.

Settings: mouse, in vivo

| SMILES | tolerance (sc, 25 mg/kg) | tolerance (50 mg/kg) |
| --- | --- | --- |
| O=C(O)c1cn(C2CC2)c2cc(N3CCNCC3)c(F)cc2c1=O [ciprofloxacin] | favorably tested | – |
| C[C@H]1c2cccc(O)c2C(=O)C2=C(O)[C@]3(O)C(=O)C(C(N)=O)=C(O)[C@@H](N(C)C)[C@@H]3[C@@H](O)[C@@H]21 [doxycycline] | – | poorly tolerated |
